A word on the Ki: it is a measure of affinity in units of concentration, obtained from inhibition or displacement. Higher therefore signals a looser hold on the target.

The target of one assay is T1, hCA II (Homo sapiens, UniProt P00918).
T1 construct: gene CA2; cytosolic isoform
Briefly: stopped-flow CO2 hydrase assay. The assay is classed as biochemical. The source says: stopped-flow CO2 hydrase assay on hCA II

Another assay addresses T2, hCA I (Homo sapiens, UniProt P00915).
T2 construct: gene CA1; cytosolic isoform
In words: stopped-flow CO2 hydrase assay. Type of assay: biochemical. The text has this: stopped-flow CO2 hydrase assay on hCA I

In the next assay the target is T3, mtCA 3 (Mycobacterium tuberculosis, UniProt P96878).
T3 construct: beta-class carbonic anhydrase
In words: biochemical. Set-up: stopped-flow CO2 hydration assay, phenol red absorbance at 557 nm, 15 min pre-incubation, Ki by Cheng-Prusoff. The procedure:
An Sx.18Mv-R Applied Photophysics (Oxford, UK) stopped-flow instrument has been used to assay the catalytic activity of various CA isozymes for CO2 hydration reaction. Phenol red (at a concentration of 0.2 mM) was used as indicator, working at the absorbance maximum of 557 nm, with 10 mM Hepes (pH 7.5) or 10 mM Tris (pH 8.5) as buffers, and 0.1 M Na2SO4 (for maintaining constant ionic strength, which is not inhibitory against these enzymes), following the CA-catalysed CO2 hydration reaction for a period of 10 s at 25 °C. The CO2 concentrations ranged from 1.7 to 17 mM for the determination of the kinetic parameters and […]. For each inhibitor at least six traces of the initial 5–10% of the reaction have been used for determining the initial rate. The uncatalysed rates were determined in the same manner and subtracted from the total observed rates. Stock solutions of inhibitors (10 mM) were prepared in distilled-deionised […] to 1 nM using the assay buffer. Inhibitor and enzyme solutions were pre-incubated together for 15 min (standard assay at room temperature) prior to assay, in order to allow for the formation of the enzyme–inhibitor complex. The inhibition constant (KI), was obtained by considering the classical Michaelis–Menten equation and the Cheng-Prusoff algorithm by using non-linear least squares fitting as reported earlier. The compounds 5 and 6 reported here were investigated as inhibitors of three CAs involved in crucial physiologic processes and known to act as drug targets, i.e. the human (h) isoforms hCA I and II (belonging to the α-CA class) and the bacterial enzyme mtCA3 from Mycobacterium tuberculosis (a β-class CA) (Table 3). Acetazolamide (AAZ), a clinically used sulphonamide has been employed as standard inhibitor in the assay.

Molecules are shown by their SMILES. Where only a bound is given, the exact number is not on record here.

T3 sequence (P96878 entry or part of it): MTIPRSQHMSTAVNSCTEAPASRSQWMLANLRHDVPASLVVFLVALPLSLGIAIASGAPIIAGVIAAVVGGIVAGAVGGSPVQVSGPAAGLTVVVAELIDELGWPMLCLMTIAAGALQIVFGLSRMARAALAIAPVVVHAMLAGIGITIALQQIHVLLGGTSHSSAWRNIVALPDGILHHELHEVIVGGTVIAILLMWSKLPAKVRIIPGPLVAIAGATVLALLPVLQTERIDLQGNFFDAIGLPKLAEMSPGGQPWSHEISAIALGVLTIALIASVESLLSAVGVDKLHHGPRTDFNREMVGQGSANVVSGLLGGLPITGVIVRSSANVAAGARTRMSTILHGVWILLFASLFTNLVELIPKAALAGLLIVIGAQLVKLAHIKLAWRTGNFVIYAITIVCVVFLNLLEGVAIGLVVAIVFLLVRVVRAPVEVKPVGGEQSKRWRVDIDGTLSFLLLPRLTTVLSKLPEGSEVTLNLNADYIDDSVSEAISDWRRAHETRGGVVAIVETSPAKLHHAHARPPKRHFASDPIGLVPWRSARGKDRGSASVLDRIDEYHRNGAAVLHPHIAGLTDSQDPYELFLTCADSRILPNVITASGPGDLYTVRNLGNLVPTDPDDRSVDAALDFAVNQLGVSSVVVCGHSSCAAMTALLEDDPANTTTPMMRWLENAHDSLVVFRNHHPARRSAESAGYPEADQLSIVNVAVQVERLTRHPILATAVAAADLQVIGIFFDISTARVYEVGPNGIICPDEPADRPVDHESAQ
T2 sequence (P00915 2-261): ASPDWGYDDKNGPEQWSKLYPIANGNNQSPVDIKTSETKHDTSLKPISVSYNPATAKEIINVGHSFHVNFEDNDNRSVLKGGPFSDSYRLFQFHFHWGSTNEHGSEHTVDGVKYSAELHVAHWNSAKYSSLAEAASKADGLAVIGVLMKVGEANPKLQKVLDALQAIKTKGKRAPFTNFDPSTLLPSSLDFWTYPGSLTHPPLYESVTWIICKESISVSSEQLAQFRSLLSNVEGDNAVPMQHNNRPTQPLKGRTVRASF

For the compound `NS(=O)(=O)c1ccc(NCC(=O)N/N=C/c2ccccc2O)cc1` [6c, 4-((2-(2-(2-Hydroxybenzylidene)hydrazinyl)-2-oxoethyl)amino) benzenesulphonamide], the Ki at hCA II was found to be 32.1 nM; at hCA I, 54.6 nM; on mtCA 3 it was 2150 nM.

Take `NS(=O)(=O)c1ccc(NCC(=O)N/N=C/c2ccccn2)cc1` [6d, 4-((2-Oxo-2-(2-(pyridin-2-ylmethylene) hydrazinyl)ethyl)amino) benzenesulphonamide]: the Ki at hCA II is 418 nM; on hCA I it was 316 nM; on mtCA 3, above 10000 nM.

Regarding `COc1ccc(/C=N/NC(=O)CNc2ccc(S(N)(=O)=O)cc2)cc1` [6f, 4-((2-(2-(4-Methoxybenzylidene) hydrazinyl)-2-oxoethyl)amino) benzenesulphonamide], the Ki came to 703 nM on hCA II, 648 nM on hCA I and 2130 nM at mtCA 3.

Consider `COc1cc(/C=N/NC(=O)CNc2ccc(S(N)(=O)=O)cc2)cc(OC)c1O` [6h, 4-((2-(2-(4-Hydroxy-3,5-dimethoxybenzylidene)hydrazinyl)-2-oxoethyl)amino) benzenesulphonamide], for which the Ki is 483 nM on hCA II, 292 nM at hCA I and 2000 nM on mtCA 3.

For the compound `COc1cc(/C=N/NC(=O)CNc2ccc(S(N)(=O)=O)cc2)cc(OC)c1OC` [6i, 4-((2-Oxo-2-(2-(3,4,5-trimethoxybenzylidene) hydrazinyl)ethyl)amino) benzenesulphonamide], the results for the Ki on hCA II, on hCA I and on mtCA 3 were 446 nM, 890 nM and 216 nM, respectively.

For the compound `COc1cccc(C=NNC(=O)CNc2ccc(S(N)(=O)=O)cc2)c1OC` [6j, 4-((2-(2-(2,3-Dimethoxybenzylidene)hydrazinyl)-2-oxoethyl)amino)benzenesulphonamide], the Ki turned out to be 240 nM at hCA II, 785 nM at hCA I and 232 nM at mtCA 3.

The values are drawn from publication PMC6010129, “Evaluation of sulphonamide derivatives acting as inhibitors of human carbonic anhydrase isoforms I, II and Mycobacterium tuberculosisβ-class enzyme Rv3273” (Journal of Enzyme Inhibition and Medicinal Chemistry, 2018).
